According to paper PMC5681660, “Reduced hepatitis B and D viral entry using clinically applied drugs as novel inhibitors of the bile acid transporter NTCP” (Scientific Reports, 2017):
Where a name gives a salt, the structure may show the parent alone.

Target: T1, human NTCP (Homo sapiens, UniProt Q14973)
T1 sequence (Q14973 1-349): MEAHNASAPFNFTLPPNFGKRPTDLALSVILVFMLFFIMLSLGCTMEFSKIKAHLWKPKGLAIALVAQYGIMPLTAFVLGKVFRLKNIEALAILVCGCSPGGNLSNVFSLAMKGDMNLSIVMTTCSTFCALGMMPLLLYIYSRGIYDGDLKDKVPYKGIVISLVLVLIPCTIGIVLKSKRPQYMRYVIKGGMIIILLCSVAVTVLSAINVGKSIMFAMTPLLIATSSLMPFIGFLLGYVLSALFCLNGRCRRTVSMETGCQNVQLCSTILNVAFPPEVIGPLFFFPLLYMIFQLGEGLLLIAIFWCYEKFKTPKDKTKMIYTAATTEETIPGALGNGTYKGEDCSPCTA
Experiment: Screening taurocholate uptake assay (96-well, [14C]taurocholate, 10 µM drug)
Settings: for B-score functional assay: screening taurocholate uptake, 10 µM drug

[1] = combined ranking of functional and binding screening assays
[2] = ranking over the functional and the binding screening assay

CC(C)(C)NCC(O)COc1cccc2c1CCC(=O)N2 (stereo not drawn) [Carteolol hydrochloride]
Ranking score [1]: 570.247 | B-score functional assay: -0.486

CCN1CCC[C@H]1CNC(=O)c1c(OC)ccc(Br)c1OC.Cl [Remoxipride Hydrochloride]
Ranking score [1]: 496.085 | B-score functional assay: -0.058

CCCCCN(CCCCC)C(=O)C(CCC(=O)[O-])NC(=O)c1ccc(Cl)c(Cl)c1.[Na+] (stereo not drawn) [Lorglumide sodium salt]
Ranking score [2]: 164.012 | B-score functional assay: -3.59

CN(C)c1nc(N(C)C)nc(N(C)C)n1 [Altretamine]
Ranking score [1]: 605.153 | B-score functional assay: -0.464

CCOC(=O)c1ccc(OC(=O)CCCCCN=C(N)N)cc1.CS(=O)(=O)O [Gabexate mesilate]
Ranking score [2]: 203.005 | B-score functional assay: 0.072

C=C1c2cccc(O)c2C(=O)C2=C(O)[C@]3(O)C(=O)C(C(N)=O)=C(O)[C@@H](N(C)C)[C@@H]3[C@@H](O)[C@H]12 [Methacycline hydrochloride]
Ranking score [2]: 244.434 | B-score functional assay: 0.118

NC[C@H]1O[C@H](O[C@H]2[C@H](O)[C@@H](O[C@H]3O[C@H](CO)[C@@H](O)[C@H](N)[C@H]3O)[C@H](N)C[C@@H]2N)[C@H](N)C[C@@H]1O [Tobramycin]
Ranking score [1]: 498.515 | B-score functional assay: -0.213

CC[C@@]1([C@H]2O[C@H]([C@H]3O[C@@](O)(CO)[C@H](C)C[C@@H]3C)C[C@H]2C)CC[C@H]([C@@]2(C)CC[C@]3(C[C@H](O)[C@@H](C)[C@@H]([C@H](C)[C@H](OC)[C@@H](C)C(=O)[O-])O3)O2)O1.[Na+] [Monensin sodium salt]
Ranking score [2]: 257.93 | B-score functional assay: -1.407

C#C[C@]1(OC(C)=O)CC[C@H]2[C@@H]3CCC4=CC(=NO)CC[C@@H]4[C@H]3CC[C@@]21CC (mixture of isomers) [Norgestimate]
Ranking score [2]: 95.4987 | B-score functional assay: -2.463

NC(=O)c1cnccn1 [Pyrazinamide]
Ranking score [2]: 244.119 | B-score functional assay: 0.065

COc1c(O[C@@H]2O[C@H](CO)[C@@H](O)[C@H](O)[C@H]2O)cc2c(c1OC)-c1ccc(SC)c(=O)cc1[C@@H](NC(C)=O)CC2 [Thiocolchicoside]
Ranking score [2]: 64.2729 | B-score functional assay: -3.578

CC(C)(C)NCC(O)c1ccc(O)c(CO)c1 (stereo not drawn) [Salbutamol]
Ranking score [2]: 275.042 | B-score functional assay: 1.838

COc1ccc(C(=O)CC(=O)c2ccc(C(C)(C)C)cc2)cc1 [Avobenzone]
Ranking score [2]: 206.26 | B-score functional assay: -0.955

CO[C@@]1(NC(=O)C(C(=O)O)c2ccc(O)cc2)C(=O)N2C(C(=O)O)=C(CSc3nnnn3C)CO[C@@H]21 (stereo partly drawn) [Moxalactam disodium salt]
Ranking score [1]: 623.639 | B-score functional assay: -0.667

CC(=O)[C@H]1CC[C@H]2[C@@H]3C=CC4=CC(=O)CC[C@@]4(C)[C@@H]3CC[C@]12C [Dydrogesterone]
Ranking score [1]: 511.223 | B-score functional assay: -1.016

COCC(=O)Nc1c(I)c(C(=O)NCC(O)CO)c(I)c(C(=O)N(C)CC(O)CO)c1I (stereo not drawn) [Iopromide]
Ranking score [2]: 153.642 | B-score functional assay: -5.088

C[C@]12C=CC(=O)C=C1CC[C@@H]1[C@@H]2[C@@H](O)C[C@@]2(C)[C@H]1CC[C@]2(O)C(=O)CO [Prednisolone]
Ranking score [1]: 486.999 | B-score functional assay: -0.52

COc1ccc(/C=C/C(=O)Nc2ccccc2C(=O)O)cc1OC [Tranilast]
Ranking score [2]: 106.883 | B-score functional assay: -4.178

C[C@@H](O[C@H]1OCCN(Cc2n[nH]c(=O)[nH]2)[C@H]1c1ccc(F)cc1)c1cc(C(F)(F)F)cc(C(F)(F)F)c1 [Aprepitant]
Ranking score [2]: 111.812 | B-score functional assay: -3.7

CCCOc1ccccc1-c1nc2nn[nH]c2c(=O)[nH]1 [Zaprinast]
Ranking score [2]: 188.481 | B-score functional assay: -1.838

CCOC(=O)C1=C(C)NC(C)=C(C(=O)OC)C1c1cccc(Cl)c1Cl (stereo not drawn) [Felodipine]
Ranking score [1]: 465.188 | B-score functional assay: 1.073

CCCCNc1c(C(=O)OCC)c(C)nc2c1cnn2CC.Cl [Tracazolate hydrochloride]
Ranking score [2]: 238.155 | B-score functional assay: -1.912

Br.C[N+]1([O-])[C@@H]2CC(OC(=O)[C@H](CO)c3ccccc3)C[C@H]1[C@@H]1O[C@@H]12 (stereo partly drawn) [Scopolamin-N-oxide hydrobromide]
Ranking score [2]: 208.216 | B-score functional assay: -2.352

N#Cc1cc(NC(=O)C(=O)O)c(Cl)c(NC(=O)C(=O)O)c1 [Lodoxamide]
Ranking score [1]: 609.015 | B-score functional assay: -0.138

Cc1ccc(S(=O)(=O)NC(=O)NN2CCCCCC2)cc1 [Tolazamide]
Ranking score [1]: 601.655 | B-score functional assay: -0.681

Clc1ccc(COC(Cn2ccnc2)c2ccc(Cl)cc2Cl)cc1 (stereo not drawn) [Econazole nitrate]
Ranking score [2]: 155.949 | B-score functional assay: -2.794

CC(=O)N[C@@H](CS)C(=O)O [Acetylcysteine]
Ranking score [1]: 542.19 | B-score functional assay: -1.045

R(-) Apomorphine hydrochloride hemihydrate
Ranking score [1]: 1173.62 | B-score functional assay (B-score): 2.876

CN[C@@H]1[C@H](O)[C@H](NC)[C@H]2O[C@@]3(O)C(=O)C[C@@H](C)O[C@H]3O[C@@H]2[C@H]1O.Cl.Cl [Spectinomycin dihydrochloride]
Ranking score [2]: 126.98 | B-score functional assay: -0.865

Nc1nc(NC2CC2)c2ncn([C@H]3C=C[C@@H](CO)C3)c2n1 [Abacavir Sulfate]
Ranking score [1]: 1184.97 | B-score functional assay (B-score): 2.371

COc1cc(C(=O)NCc2ccc(OCCN(C)C)cc2)cc(OC)c1OC [Trimethobenzamide hydrochloride]
Ranking score [1]: 1250.5 | B-score functional assay (B-score): 2.997

CCOCCn1c(N2CCCN(C)CC2)nc2ccccc21 [Emedastine]
Ranking score [1]: 501.772 | B-score functional assay: -0.5

CN1CCC(=C2c3ccccc3Sc3ccccc32)CC1 [Pimethixene maleate]
Ranking score [1]: 556.525 | B-score functional assay: -0.824

NC(N)=NCc1cccc(I)c1.NC(N)=NCc1cccc(I)c1.O=S(=O)(O)O [Iobenguane sulfate]
Ranking score [1]: 1171.02 | B-score functional assay (B-score): 1.016

C=CC1=C(C(=O)O)N2C(=O)[C@@H](NC(=O)/C(=N\OCC(=O)O)c3csc(N)n3)[C@H]2SC1 [Cefixime]
Ranking score [2]: 185.952 | B-score functional assay: -2.268

COCCCC/C(=N\OCCN)c1ccc(C(F)(F)F)cc1 [Fluvoxamine maleate]
Ranking score [1]: 486.369 | B-score functional assay: 0.566

C=C1/C(=C\C=C2/CCC[C@]3(C)[C@@H]([C@H](C)CCCC(C)C)CC[C@@H]23)C[C@@H](O)C[C@@H]1O [Alfacalcidol]
Ranking score [1]: 594.47 | B-score functional assay: -0.117

NC(=O)OCCCc1ccccc1 [Phenprobamate]
Ranking score [1]: 613.275 | B-score functional assay: 0.708

C[N+]1(C)CCC(=C(c2ccccc2)c2ccccc2)CC1 [Diphemanil methylsulfate]
Ranking score [1]: 1220.85 | B-score functional assay (B-score): 2.82

Nc1cc(N2CCCCC2)nc(N)[n+]1[O-] [Minoxidil]
Ranking score [2]: 87.241 | B-score functional assay: -3.894

NC(=O)C[S+]([O-])C(c1ccccc1)c1ccccc1 (stereo not drawn) [Modafinil]
Ranking score [1]: 485.699 | B-score functional assay: 2.253

CCOC(=O)[N-]c1cn(N2CCOCC2)n[o+]1 [Molsidomine]
Ranking score [1]: 467.403 | B-score functional assay: 0.63

C[C@]12CC[C@H]3C(=CCc4cc(O)ccc43)[C@@H]1CCC2=O [Equilin]
Ranking score [2]: 264.641 | B-score functional assay: -2.643

CC(C)(C)NCC(O)c1cc(Cl)c(N)c(Cl)c1 (stereo not drawn) [Clenbuterol hydrochloride]
Ranking score [1]: 497.397 | B-score functional assay: -0.705

COc1cc(N)c(Cl)cc1C(=O)NC1CCN(CCCOc2ccc(F)cc2)CC1OC (stereo not drawn) [Cisapride]
Ranking score [2]: 235.1 | B-score functional assay: -0.847

CC1(C)S[C@@H]2[C@H](NC(=O)[C@H](N)c3ccc(O)cc3)C(=O)N2[C@H]1C(=O)O [Amoxicillin]
Ranking score [2]: 277.274 | B-score functional assay: -0.114

COc1ccc(-c2ccc3cc(C(=O)O)ccc3c2)cc1C12CC3CC(CC(C3)C1)C2 [Adapalene]
Ranking score [1]: 620.435 | B-score functional assay: 0.202

C[C@]12CC[C@@H]3c4ccc(O)cc4CC[C@H]3[C@@H]1C[C@@H](O)[C@@H]2O [Estriol]
Ranking score [1]: 589.644 | B-score functional assay: 0.325

CC(=O)N(CC(C)C(=O)O)c1c(I)cc(I)c(N)c1I (stereo not drawn) [Iocetamic acid]
Ranking score [2]: 232.635 | B-score functional assay: -0.783

CCc1nc(N)nc(N)c1-c1ccc(Cl)cc1 [Pyrimethamine]
Ranking score [1]: 1154.81 | B-score functional assay (B-score): 2.36

NS(=O)(=O)c1cc(C2(O)NC(=O)c3ccccc32)ccc1Cl (stereo not drawn) [Chlorthalidone]
Ranking score [1]: 532.184 | B-score functional assay: -1.121

CC(=O)NCCCS(=O)(=O)O [Acamprosate calcium]
Ranking score [2]: 126.206 | B-score functional assay: -0.535

CC(=O)OCC(=O)[C@@]1(O)CC[C@H]2[C@@H]3CCC4=CC(=O)C=C[C@]4(C)[C@@]3(F)[C@@H](O)C[C@@]21C [Isoflupredone acetate]
Ranking score [1]: 486.111 | B-score functional assay: 1.125

CC(=O)OCC(CCn1cnc2cnc(N)nc21)COC(C)=O [Famciclovir]
Ranking score [1]: 539.09 | B-score functional assay: 0.016
